Assay: CHI Log D procedure
Type: physicochemical
Conditions: pH 7.4

| Structure (SMILES) | CHI Log D |
| --- | --- |
| CC(=O)N[C@@H](Cc1ccccc1)C(=O)N[C@@H](CC(=O)O)C(=O)N[C@@H](C)C(=O)N[C@]1(C)CCCCCCC=CCOC(=O)N2CC[C@@](C(=O)N[C@@H](Cc3ccccc3)C(=O)N[C@@H](Cc3c[nH]c4ccccc34)C(=O)N[C@@H](CCC(N)=O)C(N)=O)(C2)NC(=O)[C@H](C(C)C)NC(=O)[C@H](Cc2ccccc2)NC(=O)[C@H](CC(=O)O)NC(=O)[C@H](C)NC(=O)[C@H](CC(=O)O)NC(=O)[C@H](CC(=O)O)NC1=O (single isomer, unassigned) [I-20, Ac-Phe-Asp-Ala-R8-Asp-Asp-Ala-Asp-Phe-Val-PyrS-Phe-Trp-Gln-NH2] | 0.935 |
| CC(=O)N[C@@H](Cc1ccccc1)C(=O)N[C@@H](CC(=O)O)C(=O)N[C@@H](C)C(=O)N[C@]1(C)CCCCCCC=CCOC(=O)N2CC[C@@](C(=O)N[C@@H](Cc3ccccc3)C(=O)N[C@@H](Cc3c[nH]c4ccccc34)C(=O)N[C@@H](CCC(N)=O)C(N)=O)(C2)NC(=O)[C@H](C(C)C)NC(=O)[C@H](Cc2ccccc2)NC(=O)[C@H](C)NC(=O)[C@H](C)NC(=O)[C@H](CC2CCCCC2)NC(=O)[C@H](CC(=O)O)NC1=O (single isomer, unassigned) [I-16, Ac-Phe-Asp-Ala-R8-Asp-Cha-Ala-Ala-Phe-Val-PyrS-Phe-Trp-Gln-NH2] | 2.21 |

The next lines start with the values.

| CHI Log D | Structure (SMILES) |
| --- | --- |
| 2.224 | CC(=O)N1CCC[C@]12CC=CCCCC1(CCCC=CCCCCCC[C@@](C)(C(=O)N[C@@H](Cc3ccccc3)C(=O)N[C@@H](Cc3c[nH]c4ccccc34)C(=O)N[C@@H](CCC(N)=O)C(N)=O)NC(=O)[C@H](C(C)C)NC(=O)[C@H](Cc3ccccc3)NC(=O)[C@H](C)NC(=O)[C@H](C)NC(=O)[C@H](CC(=O)O)NC(=O)[C@H](CCC(=O)O)NC1=O)NC(=O)[C@H](C)NC(=O)[C@H](CC(=O)O)NC2=O (stereo partly drawn) [I-282, Ac-PL3-Asp-Ala-B5-Glu-Asp-Ala-Ala-Phe-Val-S8-Phe-Trp-Gln-NH2] |
| 1.928 | CC(=O)N1CCC[C@]12CC=CCCCC1(CCCC=CCCCCCC[C@@](C)(C(=O)N[C@@H](Cc3ccccc3)C(=O)N[C@@H](Cc3c[nH]c4ccccc34)C(=O)N[C@@H](CO)C(N)=O)NC(=O)[C@H](C(C)C)NC(=O)[C@H](Cc3ccccc3)NC(=O)[C@H](C)NC(=O)[C@H](C)NC(=O)[C@H](CC(=O)O)NC(=O)[C@H](CC(=O)O)NC1=O)NC(=O)[C@H](C)NC(=O)[C@H](CC(=O)O)NC2=O (single isomer, unassigned) [I-335, Ac-PL3-Asp-Ala-B5-Asp-Asp-Ala-Ala-Phe-Val-S8-Phe-WCHO-Ser-NH2] |
| 1.376 | CC(=O)N[C@@H](Cc1ccccc1)C(=O)N[C@@H](CC(=O)O)C(=O)N[C@@H](C)C(=O)N[C@]1(C)CCCCCCC=CCOC(=O)N2CC[C@@](C(=O)N[C@@H](Cc3ccccc3)C(=O)N[C@@H](Cc3c[nH]c4ccccc34)C(=O)N[C@@H](CCC(N)=O)C(N)=O)(C2)NC(=O)[C@H](C(C)C)NC(=O)[C@H](CC2CCCCC2)NC(=O)[C@H](C)NC(=O)[C@H](C)NC(=O)[C@H](CC(=O)O)NC(=O)[C@H](CC(=O)O)NC1=O (single isomer, unassigned) [I-75, Ac-Phe-Asp-Ala-R8-Asp-Asp-Ala-Ala-Cha-Val-PyrS-Phe-Trp-Gln-NH2] |
| 1.359 | CC(=O)N[C@@H](Cc1ccccc1)C(=O)N[C@@H](CC(=O)O)C(=O)N[C@@H](C)C(=O)N[C@]1(C)CCCCCCC=CCOC(=O)N2CC[C@@](C(=O)N[C@@H](Cc3ccccc3)C(=O)N[C@@H](Cc3c[nH]c4ccccc34)C(=O)N[C@@H](CCC(N)=O)C(N)=O)(C2)NC(=O)[C@H](CO)NC(=O)[C@H](Cc2ccccc2)NC(=O)[C@H](C)NC(=O)[C@H](C)NC(=O)[C@H](CC(=O)O)NC(=O)[C@H](CC(=O)O)NC1=O [I-164, Ac-Phe-Asp-Ala-R8-Asp-Asp-Ala-Ala-Phe-Ser-PyrS-Phe-Trp-Gln-NH2] |
| 2.138 | CC(=O)N1CCC[C@]12CC=CCCCC1(CCCC=CCCCCCC[C@@](C)(C(=O)N[C@@H](Cc3ccccc3)C(=O)N[C@@H](Cc3c[nH]c4ccc(C5CC5)cc34)C(=O)N[C@@H](CCC(N)=O)C(N)=O)NC(=O)[C@H](C(C)C)NC(=O)[C@H](Cc3ccccc3)NC(=O)[C@H](C)NC(=O)[C@H](C)NC(=O)[C@H](CCC(=O)O)NC(=O)[C@H](CC(=O)O)NC1=O)NC(=O)[C@H](C)NC(=O)[C@H](CC(=O)O)NC2=O (stereo partly drawn) [I-170, Ac-PL3-Asp-Ala-B5-Asp-Glu-Ala-Ala-Phe-Val-S8-Phe-5CpW-Gln-NH2] |

Same assay, conditions: pH 7.4, CHI Log D

| Structure (SMILES) | chromatographic logD |
| --- | --- |
| CC(=O)N[C@@H](Cc1ccccc1)C(=O)N[C@@H](CC(=O)O)C(=O)N[C@@H](C)C(=O)N[C@]1(C)CCCN(C)C(=O)OCC=CCCCC[C@@](C)(C(=O)N[C@@H](Cc2ccccc2)C(=O)N[C@@H](Cc2c[nH]c3ccccc23)C(=O)N[C@@H](CCC(N)=O)C(N)=O)NC(=O)[C@H](C(C)C)NC(=O)[C@H](Cc2ccccc2)NC(=O)[C@H](C)NC(=O)[C@H](C)NC(=O)[C@H](CC(=O)O)NC(=O)[C@H](CC(=O)O)NC1=O (single isomer, unassigned) [I-29, Ac-Phe-Asp-Ala-ReN-Asp-Asp-Ala-Ala-Phe-Val-S6-Phe-Trp-Gln-NH2] | 1.6 |
| CC(=O)N[C@@H](Cc1ccccc1)C(=O)N[C@@H](CC(=O)O)C(=O)N[C@@H](C)C(=O)N[C@]1(C)CCN(C)C(=O)OCC=CCC[C@@](C)(C(=O)N[C@@H](Cc2ccccc2)C(=O)N[C@@H](Cc2c[nH]c3ccccc23)C(=O)N[C@@H](CCC(N)=O)C(N)=O)NC(=O)[C@H](C(C)C)NC(=O)[C@H](Cc2ccccc2)NC(=O)[C@H](C)NC(=O)[C@H](C)NC(=O)[C@H](CC(=O)O)NC(=O)[C@H](CC(=O)O)NC1=O (single isomer, unassigned) [I-41, Ac-Phe-Asp-Ala-RdN-Asp-Asp-Ala-Ala-Phe-Val-S4-Phe-Trp-Gln-NH2] | 1.09 |
| CC(=O)N[C@@H](Cc1ccccc1)C(=O)N[C@@H](CC(=O)O)C(=O)N[C@@H](C)C(=O)N[C@]1(C)CCCCCCC=CCOC(=O)N2CC[C@@](C(=O)N[C@@H](Cc3ccc(O)cc3)C(=O)N[C@@H](Cc3c[nH]c4ccccc34)C(=O)N[C@@H](CCC(N)=O)C(N)=O)(C2)NC(=O)[C@H](C(C)C)NC(=O)[C@H](Cc2ccccc2)NC(=O)[C@H](C)NC(=O)[C@H](C)NC(=O)[C@H](CC(=O)O)NC(=O)[C@H](CC(=O)O)NC1=O (single isomer, unassigned) [I-62, Ac-Phe-Asp-Ala-R8-Asp-Asp-Ala-Ala-Phe-Val-PyrS-Tyr-Trp-Gln-NH2] | 0.981 |
| CC(=O)N[C@@H](Cc1ccccc1)C(=O)N[C@@H](CC(=O)O)C(=O)N[C@@H](C)C(=O)N[C@]1(C)CCCCCCC=CCOC(=O)N2CC[C@@](C(=O)N[C@@H](Cc3ccccc3)C(=O)N[C@@H](Cc3c[nH]c4ccccc34)C(=O)N[C@@H](CCC(N)=O)C(N)=O)(C2)NC(=O)[C@H](C(C)C)NC(=O)[C@H](Cc2ccccc2)NC(=O)[C@H](CC(=O)O)NC(=O)[C@H](C)NC(=O)[C@H](CC(=O)O)NC(=O)[C@H](CC(=O)O)NC1=O (single isomer, unassigned) [I-19, Ac-Phe-Asp-Ala-R8-Asp-Asp-Ala-Asp-Phe-Val-PyrS-Phe-Trp-Gln-NH2] | 0.948 |
| CC(=O)N[C@@H](Cc1ccccc1)C(=O)N[C@@H](CC(=O)O)C(=O)N[C@@H](C)C(=O)N[C@]1(C)CCCCCCC=CCOC(=O)N2CC[C@@](C(=O)N[C@@H](Cc3ccccc3)C(=O)N[C@@H](Cc3c[nH]c4ccccc34)C(=O)N[C@@H](CCC(N)=O)C(N)=O)(C2)NC(=O)[C@H](C(C)C)NC(=O)[C@H](Cc2ccccc2)NC(=O)[C@H](C)NC(=O)[C@H](C)NC(=O)[C@H](Cc2ccc(C(=O)O)cc2)NC(=O)[C@H](CC(=O)O)NC1=O (single isomer, unassigned) [I-7, Ac-Phe-Asp-Ala-R8-Asp-4COOHF-Ala-Ala-Phe-Val-PyrS-Phe-Trp-Gln-NH2] | 1.32 |

Now from value to compound:

| chromatographic logD | Structure (SMILES) |
| --- | --- |
| 3.13 | CC(=O)N1CCC[C@]12CC=CCCCC1(CCCC=CCCCCCC[C@@](C)(C(=O)N[C@@H](Cc3ccccc3)C(=O)N[C@@H](Cc3c[nH]c4ccccc34)C(=O)N[C@@H](CCC(N)=O)C(N)=O)NC(=O)[C@H](C(C)C)NC(=O)[C@H](Cc3ccccc3)NC(=O)[C@H](C)NC(=O)[C@H](C)NC(=O)[C@H](C(c3ccccc3)c3ccccc3)NC(=O)[C@H](CC(=O)O)NC1=O)NC(=O)[C@H](C)NC(=O)[C@H](CC(=O)O)NC2=O (stereo partly drawn) [I-303, Ac-PL3-Asp-Ala-B5-Asp-DipA-Ala-Ala-Phe-Val-S8-Phe-Trp-Gln-NH2] |
| 2.82 | CC(=O)N1CCC[C@]12CC=CCCCC1(CCCC=CCCCCCC[C@@](C)(C(=O)N[C@@H](Cc3ccccc3)C(=O)N[C@@H](Cc3csc4ccccc34)C(=O)N[C@@H](CCC(N)=O)C(N)=O)NC(=O)[C@H](C(C)C)NC(=O)[C@H](Cc3ccccc3)NC(=O)[C@H](C)NC(=O)[C@H](C)NC(=O)[C@H](Cc3ccc4ccccc4n3)NC(=O)[C@H](CC(=O)O)NC1=O)NC(=O)[C@H](C)NC(=O)[C@H](CC(=O)O)NC2=O (stereo partly drawn) [I-300, Ac-PL3-Asp-Ala-B5-Asp-Qui-Ala-Ala-Phe-Val-S8-Phe-BztA-Gln-NH2] |
| 2.89 | CC(=O)N1CCC[C@]12CC=CCCCC1(CCCC=CCCCCCC[C@@](C)(C(=O)N[C@@H](Cc3ccccc3)C(=O)N[C@@H](Cc3c[nH]c4ccccc34)C(=O)N[C@@H](CCC(N)=O)C(N)=O)NC(=O)[C@H](C(C)C)NC(=O)[C@H](Cc3ccccc3)NC(=O)[C@H](C)NC(=O)[C@H](C)NC(=O)[C@H](Cc3ccc(F)cc3)NC(=O)[C@H](CC(=O)O)NC1=O)NC(=O)[C@H](C)NC(=O)[C@H](CC(=O)O)NC2=O (stereo partly drawn) [I-258, Ac-PL3-Asp-Ala-B5-Asp-4FF-Ala-Ala-Phe-Val-S8-Phe-Trp-Gln-NH2] |
| 1.33 | CC(=O)N[C@@H](Cc1ccccc1)C(=O)N[C@@H](CC(=O)O)C(=O)N[C@@H](C)C(=O)N[C@]1(C)CCCCCCC=CCOC(=O)N2CC[C@@](C(=O)N[C@@H](Cc3ccccc3)C(=O)N[C@@H](Cc3c[nH]c4ccccc34)C(=O)N[C@@H](CCC(N)=O)C(N)=O)(C2)NC(=O)[C@H](C(C)C)NC(=O)[C@H](CCc2ccccc2)NC(=O)[C@H](C)NC(=O)[C@H](C)NC(=O)[C@H](CC(=O)O)NC(=O)[C@H](CC(=O)O)NC1=O (single isomer, unassigned) [I-117, Ac-Phe-Asp-Ala-R8-Asp-Asp-Ala-Ala-hPhe-Val-PyrS-Phe-Trp-Gln-NH2] |

Reference: patent US20240116985A1, “STAPLED PEPTIDES AND METHODS THEREOF” (priority 2020, published 2024)
